Consider 21 compounds from patent US7935700B2, “Morpholine compound” (Mitsubishi Tanabe Pharma Corporation, priority 2004, dated 2011).

Where a name gives a salt, the structure may show the parent alone. Read-outs that look alike come from different tables or passages of the source.

One assay concerns the target T1, CCR3 (Homo sapiens, UniProt P51677).
T1 construct: Eosinophils separated from peripheral blood of healthy subject; endogenous in cells; host or cells: eosinophils separated from peripheral blood of healthy subject
T1 sequence (P51677 1-355): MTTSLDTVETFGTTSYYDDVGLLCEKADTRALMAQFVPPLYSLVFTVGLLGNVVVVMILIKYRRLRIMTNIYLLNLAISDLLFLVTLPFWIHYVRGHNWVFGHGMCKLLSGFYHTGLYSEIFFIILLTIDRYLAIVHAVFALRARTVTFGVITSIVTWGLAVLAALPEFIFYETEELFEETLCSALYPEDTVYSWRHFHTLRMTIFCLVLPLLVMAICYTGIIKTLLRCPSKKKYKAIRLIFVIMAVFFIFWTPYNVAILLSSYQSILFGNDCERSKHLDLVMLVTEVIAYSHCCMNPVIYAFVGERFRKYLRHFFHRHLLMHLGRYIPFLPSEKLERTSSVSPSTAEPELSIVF
Put plainly: Effect on intracellular calcium concentration in eosinophils upon CCL11 stimulation. It counts as cell-based. To be noted: peripheral blood eosinophils of healthy subject, agonist CCL11 1.0 nmol/L, compound 3 min before stimulation, Fura-2 AM; read-out: IC50 (50% suppression of the increase in the intracellular calcium concentration). How it is done:
Effect on Intracellular Calcium Concentration
The effect of the compound of the present invention on intracellular calcium mobilization in peripheral blood eosinophils of healthy subject upon CCL11 stimulation was examined by the following method.
Eosinophils separated from peripheral blood of healthy subject were suspended in 0.5% bovine serum albumin-containing phosphate buffered saline, and incubated at 37° C. for 45 min in the presence of 5 μmol/L of Fura-2 AM (manufactured by DOJINDO LABORATORIES).
After incubation, the cells were washed 3 times with a measurement buffer (10 mmol/L HEPES, and 0.5% bovine serum albumin-containing hanks' balanced salt solution) to remove Fura-2 AM that was not incorporated into the cells.
Finally, the cells were adjusted to 1×10^6 cells/mL with the measurement buffer and preserved in a dark place until measurement. The intracellular calcium was measured using FDSS3000 manufactured by Hamamatsu Photonics K.K. In other words, the cell suspension (0.1 mL) loaded with Fura-2 AM was placed in a 96 well plate for measurement, the fluorescence intensity to the excitation light at wavelengths 340 nm and 380 nm was measured by FDSS3000, the ratio of the fluorescence intensity to the excitation light at these two wavelengths was determined, based on which the intracellular calcium concentration was calculated. As the agonist, used was CCL11 (1.0 nmol/L), which is a CCR3 selective ligand, and the antagonistic activity was determined as 50% suppression rate (IC50 value) of the increase in the intracellular calcium concentration, when eosinophils were treated with various concentrations of the compound of the present invention at 3 min before agonist stimulation.

Assay [1] relates to mouse ovalbumin (OVA) induced allergic and biphasic ear edema. Nature of the assay: Antigen (OVA) induced allergic and biphasic ear edema model. It counts as in vivo. Particulars: male BALB/c mice, oral once a day from 2 days before induction, 3 or 10 mg/kg tested. On the procedure:
3: Effect on Antigen Induced Allergic and Biphasic Ear Edema Model
The in vivo effect of the compound of the present invention was examined using a mouse ovalbumin (OVA) induced allergic and biphasic ear edema model. The model was prepared according to the method of Sugawara et al. (Allergy & Clinical Immunology International, Supplement No. 2, P 785, 2000). In other words, male BALB/c mice were immunized by intraperitoneal injection with 10 μg of OVA and 1 mg of aluminum hydroxide gel (Alum). At 14 days after immunization, OVA (5 μg) were subcutaneously injected to the both ears of the mouse, whereby ear edema was induced. The thickness of the ears was measured using a dial sickness gauge immediately before subcutaneous injection and 1 and 24 hrs after subcutaneous injection of OVA. The compound of the present invention was suspended in a vehicle, 0.5% hydroxypropylmethyl cellulose solution, and orally administered at 3 mg/kg or 10 mg/kg once a day using an orally gavage needle from 2 days before ear edema induction.

Setting [2] is: ear thickness 1 hr after OVA, read-out: Dose that showed a significant suppressive action vs vehicle, Immediate phase.
Setting [3] is: ear thickness 24 hrs after OVA, read-out: Dose that showed a significant suppressive action vs vehicle, Late phase.

Take `Cc1sc(SCC(=O)NC[C@H]2CN(Cc3ccc(Cl)c(Cl)c3)CCO2)nc1C(=O)O` [Example 109, (2S)-(4-carboxy-5-methylthiazol-2-ylthio)-N-{[4-(3,4-dichlorobenzyl)morpholin-2-yl]methyl}acetamide]: the IC50 on CCR3 stood at 22.3 nM.
`NC(=O)CNC(=O)c1ccc(SCC(=O)NC[C@H]2CN(Cc3ccc(Cl)c(Cl)c3)CCO2)cc1` [Example 40, (2S)-{4-[(2-amino-2-oxoethyl)aminocarbonyl]phenylthio}-N-{[4-(3,4-dichlorobenzyl)morpholin-2-yl]methyl}acetamide]: on CCR3, the IC50 worked out at 2 nM. For the same compound, the minimal effective dose in assay [1] (setting [2]) and in assay [1] (setting [3]) was 3 mg/kg each time.
As to `Nc1nnc(SCC(=O)NC[C@H]2CN(Cc3ccc(F)c(F)c3)CCO2)s1` [Example 125, (2S)-(5-amino-1,3,4-thiadiazol-2-ylthio)-N-{[4-(3,4-difluorobenzyl)morpholin-2-yl]methyl}acetamide], on CCR3, the IC50 came to 3.6 nM. Further, the minimal effective dose in assay [1] (setting [2]) worked out at 10 mg/kg; in assay [1] (setting [3]), 3 mg/kg.
With `O=C(CSc1nc(-c2nnn[nH]2)cs1)NC[C@H]1CN(Cc2ccc(Cl)c(Cl)c2)CCO1` [Example 59, (2S)-N-{[4-(3,4-dichlorobenzyl)morpholin-2-yl]methyl}-[4-(1H-tetrazol-5-yl)thiazol-2-ylthio]acetamide], at CCR3, the IC50 amounted to 2.1 nM.
Turning to `O=C(CCCS(=O)(=O)C1CCCC1)NC[C@H]1CN(Cc2ccc(F)c(Cl)c2)CCO1` [Example 232, (2S)-4-(cyclopentanesulfonyl)-N-{[4-(3-chloro-4-fluorobenzyl)morpholin-2-yl]methyl}butyramide], the IC50 at CCR3 stood at 38.5 nM.
Regarding `NC(=O)/C=C/c1csc(SCC(=O)NC[C@H]2CN(Cc3ccc(Cl)c(Cl)c3)CCO2)n1` [Example 71, (2S)-(E)-[4-(2-carbamoylethen-1-yl)thiazol-2-ylthio]-N-{[4-(3,4-dichlorobenzyl)morpholin-2-yl]methyl}acetamide], at CCR3, the IC50 came out at 0.5 nM.
Consider `NC(=O)Cc1csc(SCC(=O)NC[C@H]2CN(Cc3ccc(F)c(F)c3)CCO2)n1` [Example 79, (2S)-[4-(carbamoylmethyl)thiazol-2-ylthio]-N-{[4-(3,4-difluorobenzyl)morpholin-2-yl]methyl}acetamide], for which the IC50 at CCR3 is 0.9 nM.
In the case of `O=C(O)CCNC(=O)c1csc(SCC(=O)NC[C@H]2CN(Cc3ccc(Cl)c(Cl)c3)CCO2)n1` [Example 46, (2S)-{4-[(2-carboxyethyl)aminocarbonyl]thiazol-2-ylthio}-N-{[4-(3,4-dichlorobenzyl)morpholin-2-yl]methyl}acetamide hydrochloride], the IC50 at CCR3 came to 3.1 nM. Besides, the minimal effective dose in assay [1] (setting [2]) and in assay [1] (setting [3]) was 10 mg/kg in each case.
Regarding `NC(=O)CNC(=O)c1csc(SCC(=O)NC[C@H]2CN(Cc3ccc(F)c(F)c3)CCO2)n1` [Example 115, (2S)-[4-(2-amino-2-oxoethyl)aminocarbonylthiazol-2-ylthio]-N-{[4-(3,4-difluorobenzyl)morpholin-2-yl]methyl}acetamide], the IC50 on CCR3 was 2.6 nM.
Take `NC(=O)c1cncc(SCC(=O)NC[C@H]2CN(Cc3ccc(Cl)c(Cl)c3)CCO2)c1` [Example 207, (2S)-(3-carbamoylpyridin-5-ylthio)-N-{[4-(3,4-dichlorobenzyl)morpholin-2-yl]methyl}acetamide]: on CCR3, the IC50 amounted to 2.4 nM.
`NC(=O)c1csc(SCCCC(=O)NC[C@H]2CN(Cc3ccc(Cl)c(Cl)c3)CCO2)n1` [Example 55, (2S)-4-(4-carbamoylthiazol-2-ylthio)-N-{[4-(3,4-dichlorobenzyl)morpholin-2-yl]methyl}butyramide hydrochloride]: the IC50 at CCR3 is 1.1 nM.
`NC(=O)c1csc(SCC(=O)NC[C@H]2CN(Cc3ccc(F)c(Cl)c3)CCO2)n1` [Example 112, (2S)-(4-carbamoylthiazol-2-ylthio)-N-{[4-(3-chloro-4-fluorobenzyl)morpholin-2-yl]methyl}acetamide]: the IC50 at CCR3 is 0.9 nM.
Regarding `CC(=O)Nc1nnc(SCC(=O)NC[C@H]2CN(Cc3ccc(Cl)c(Cl)c3)CCO2)s1` [Example 53, (2S)-(5-acetamino-1,3,4-thiadiazol-2-ylthio)-N-{[4-(3,4-dichlorobenzyl)morpholin-2-yl]methyl}acetamide], at CCR3, the IC50 turned out to be 5.3 nM. Also, the minimal effective dose in assay [1] (setting [2]) and in assay [1] (setting [3]) was 3 mg/kg each time.
Consider `Nc1nnc(SCC(=O)NC[C@H]2CN(Cc3cccc(Cl)c3)CCO2)s1` [Example 123, (2S)-(5-amino-1,3,4-thiadiazol-2-ylthio)-N-{[4-(3-chlorobenzyl)morpholin-2-yl]methyl}acetamide], for which the IC50 at CCR3 was determined as 2.6 nM. For the same compound, the minimal effective dose in assay [1] (setting [2]) and in assay [1] (setting [3]) was 10 mg/kg in each case.
For `O=C(CSc1nc2cccnc2s1)NC[C@H]1CN(Cc2ccc(Cl)c(Cl)c2)CCO1` [Example 64, (2S)-N-{[4-(3,4-dichlorobenzyl)morpholin-2-yl]methyl}-([1,3]thiazolo[5,4-b]pyridin-2-ylthio)acetamide], the IC50 on CCR3 is 0.3 nM. The values for the minimal effective dose in assay [1] (setting [2]) and in assay [1] (setting [3]) were 10 mg/kg and 3 mg/kg, respectively.
In the case of `O=C(CSc1ccc(=O)[nH]n1)NC[C@H]1CN(Cc2ccc(F)c(F)c2)CCO1` [Example 198, (2S)-N-{[4-(3,4-difluorobenzyl)morpholin-2-yl]methyl}-(6-oxo-1,6-dihydropyridazin-3-ylthio)acetamide], the IC50 at CCR3 was 3.9 nM. In addition, the minimal effective dose in assay [1] (setting [2]) and in assay [1] (setting [3]) was 10 mg/kg each time.
Take `O=C(CSc1ncccn1)NC[C@H]1CN(Cc2ccc(Cl)c(Cl)c2)CCO1` [Example 146, (2S)-N-{[4-(3,4-dichlorobenzyl)morpholin-2-yl]methyl}-(pyrimidin-2-ylthio)acetamide]: on CCR3, the IC50 came out at 2.5 nM. Moreover, the minimal effective dose in assay [1] (setting [2]) and in assay [1] (setting [3]) was 3 mg/kg throughout.
As for `NC(=O)Cc1csc(SCC(=O)NC[C@H]2CN(Cc3ccc(F)cc3)CCO2)n1` [Example 107, (2S)-[4-(carbamoylmethyl)thiazol-2-ylthio]-N-{[4-(4-fluorobenzyl)morpholin-2-yl]methyl}acetamide], the IC50 on CCR3 was found to be 2.5 nM.
On the same count and under the same terms, under `CC(=O)c1cc2cc(SCC(=O)NC[C@H]3CN(Cc4ccc(Cl)c(Cl)c4)CCO3)ccc2oc1=O` [Example 174, (2S)-(3-acetyl-2-oxo-2H-chromen-6-ylthio)-N-{[4-(3,4-dichlorobenzyl)morpholin-2-yl]methyl}acetamide] stands 16.2 nM; under `Cc1sc(SCC(=O)NC[C@H]2CN(Cc3ccc(Cl)c(Cl)c3)CCO2)nc1C(N)=O` [Example 110, (2S)-(4-carbamoyl-5-methylthiazol-2-ylthio)-N-{[4-(3,4-dichlorobenzyl)morpholin-2-yl]methyl}acetamide], 1.5 nM.
Still for that read-out and setting: under `NC(=O)Cc1cncc(SCC(=O)NC[C@H]2CN(Cc3ccc(Cl)c(Cl)c3)CCO2)n1` [Example 223, (2S)-[6-(carbamoylmethyl)pyrazin-2-ylthio]-N-{[4-(3,4-dichlorobenzyl)morpholin-2-yl]methyl}acetamide] stands 0.1 nM.
